Data taken from US20200222370A1, “PHARMACEUTICAL COMPOSITION” (KOWA COMPANY, LTD., priority 2017, published 2020).

Legend:
[1] = pH value of pemafibrate itself dissolved or dispersed in purified water; assay type: physicochemical; details: pemafibrate 5 μg/mL as free form in purified water
Protocol: Herein, the “a pH value of a solution produced by dissolving or dispersing a pharmaceutical composition in water” means a value obtained by measuring at 25° C. a pH of a solution produced by dissolving or dispersing a pharmaceutical composition containing pemafibrate, a salt thereof or a solvate thereof in water so that the concentration of pemafibrate in terms of a free form is 5 μg/mL. Incidentally, purified water is used as water. First a measurement of a pH value of pemafibrate itself was performed. To be more specific, pemafibrate was dissolved or dispersed in purified water so that the concentration of pemafibrate as the free form was 5 μg/mL. Then, a pH value of the obtained solution at 25° C. was measured.

[2] = Stability of pemafibrate under different pH environments (buffer solutions, 80° C., 96 hours, HPLC); assay type: physicochemical; details: 5 μg/mL, 96 hours later
Protocol: In Test Examples below, measurement was performed through HPLC using an ODS column as a column and an ultraviolet spectrophotometer as a detector. Additionally, the following studies were conducted in order to evaluate the stability of pemafibrate under different pH environments. Namely, buffer solutions were prepared in accordance with the descriptions about buffer solutions of U.S.Pharmacopeia (2013 Edition) and Japanese Pharmacopeia (17th Edition), so as to have the following pH values at 25° C.: pH 2.0 (hydrochloric acid buffer solution including potassium chloride); pH 3.0 and 4.0 (Acid phthalate buffer solution including potassium biphthalate); pH 6.0 and 7.0 (phosphate buffer solution); pH 8.0, 9.0 and 10.0 (Alkaline borate buffer solution including boric acid, potassium chloride and sodium hydroxide); pH 11.0 (Ammonium buffer solution including ammonia and ammonium chloride); and pH 12.0 (phosphate buffer solution). In each of the buffer solutions, pemafibrate was dissolved or dispersed so that its amount as the free form was 5 μg/mL, thereby producing liquid samples having different pH conditions. The liquid samples were stored at 80° C. for 96 hours. The amounts of pemafibrate-derived decomposition products (related substances) in the liquid samples after storage for 96 hours were evaluated through the following method. Specifically, acetonitrile was added to each of the liquid samples, and then they were measured by using HPLC. The sum of peak areas derived from related substances on the chromatogram was calculated in terms of the ratio (%) to the sum of peak areas derived from pemafibrate and related substances, and the ratio was defined as the “Total amount (%) of related substances”.

Compound: CC[C@@H](Oc1cccc(CN(CCCOc2ccc(OC)cc2)c2nc3ccccc3o2)c1)C(=O)O [pemafibrate, (2R)-2-[3-([1,3-Benzoxazol-2-yl[3-(4-methoxyphenoxy)propyl]amino]methyl)phenoxy]butanoic acid]
- pH value (25° C.) [1]: ~5.9
- Total amount (%) of related substances ([2]; pH 2.0 buffer): 27.1%
- Total amount (%) of related substances ([2]; pH 3.0 buffer): 4.1%
- Total amount (%) of related substances ([2]; pH 4.0 buffer): 1.1%
- Total amount (%) of related substances ([2]; pH 6.0 buffer): 1.3%
- Total amount (%) of related substances ([2]; pH 7.0 buffer): 0.9%
- Total amount (%) of related substances ([2]; pH 8.0 buffer): 0.4%
- Total amount (%) of related substances ([2]; pH 9.0 buffer): <0.1%
- Total amount (%) of related substances ([2]; pH 10.0 buffer): 0.1%
- Total amount (%) of related substances ([2]; pH 11.0 buffer): 0.1%
- Total amount (%) of related substances ([2]; pH 12.0 buffer): <0.1%
